Among the data in ChEMBL document CHEMBL3217628, “Benzisothiazolones arrest the cell cycle at the G2/M phase and induce apoptosis in HeLa cells” (Medchemcomm, 2013) are solubility, IC50 and Activity values, retold here.

Activity calls are given as the source filed them. The rule behind the calls is not given here.

A short description of series [1]: Solubility of the compound in DMSO. The series is classed as physicochemical.
The test system of series [2] is SW480. The series is described as follows: Cytotoxicity against human SW480 cells after 72 hrs by MTT assay. It is filed as functional, cell-based. The note with it: SW480, 72 h. In general terms: Tetrazolium dyes change colour on reduction, which living cells bring about.
In series [3] the test system is HeLa. The series is described as follows: Cytotoxicity against human HeLa cells after 72 hrs by MTT assay. The series is classed as functional, cell-based.
In series [4] the test system is SiHa. Briefly: Cytotoxicity against human SiHa cells after 72 hrs by MTT assay. It is filed as functional, cell-based.
Series [5] concerns HeLa. The series is described as follows: Induction of apoptosis in human HeLa cells assessed as disruption of mitochondrial membrane potential at […] after 72 hrs using JC1 dye by fluorescence microscope analysis. It is filed as functional, cell-based.
The test system of series [6] is HeLa. Briefly: Induction of apoptosis in human HeLa cells assessed as cleaved caspase-3 level at […] after 48 hrs by Western blot analysis. It is filed as functional, cell-based. (Immunoblotting shows a protein as a band on a membrane.)
In series [7] the test system is HeLa. The series is described as follows: Cell cycle arrest in human HeLa cells assessed as apoptotic cells at 50 uM after 48 hrs using propidium iodide staining by flow cytometry (reference value: 7.3%). The series is classed as functional. (Flow cytometry measures light scatter and fluorescence of single cells or particles in a stream.)
The test system of series [8] is HeLa. The series is described as follows: Induction of apoptosis in human HeLa cells assessed as formation of DNA fragmentation at 50 uM after 72 hrs using ethidium bromide staining by 2% agarose gel electrophoresis assay. It is filed as functional, cell-based.
Series [9] relates to HeLa. The series is described as follows: Induction of apoptosis in human HeLa cells assessed as disruption of mitochondrial membrane potential at 50 uM after 72 hrs using JC1 dye by fluorescence microscope analysis. The series is classed as functional, cell-based.
In series [10] the test system is HeLa. Briefly: Cell cycle arrest in human HeLa cells assessed as accumulation at G2/M phase at 50 uM after 48 hrs using propidium iodide staining by flow cytometry (reference value: 14.3%). The series is classed as functional.

As for `Cc1ccc(-n2sc3ccccc3c2=O)cc1`, in series [1], the solubility entry is “soluble”.

What is called IC50 is the midpoint of a concentration-inhibition curve. Read a high IC50 as lower potency. On to `O=c1c2ccccc2sn1Cc1ccc2c(c1)OCO2`, for which the 50% inhibitory concentration (IC50) was 46.3 µM in [2], 37.3 µM in series [3] and 29.3 µM in series [4].

`COc1ccccc1-n1sc2ccccc2c1=O`: the solubility result in series [1] was “soluble”.

Take `C[C@@H](c1ccccc1)n1sc2ccccc2c1=O`: the IC50 in [2] was found to be 41.8 µM; in [3] it was 30.9 µM; in series [4] it was 35.9 µM.

Take `COc1ccc(-n2sc3ccccc3c2=O)cc1`: the solubility result in series [1] is listed as “soluble”.

Consider `CC(=O)O[C@H]1C(=O)[C@@]2(C)[C@H]([C@H](OC(=O)c3ccccc3)[C@]3(O)C[C@H](OC(=O)[C@H](O)[C@@H](NC(=O)c4ccccc4)c4ccccc4)C(C)=C1C3(C)C)[C@]1(OC(C)=O)CO[C@@H]1C[C@@H]2O`, for which the outcome in series [5] and in series [6] was Active.

On to `O=C(c1ccccc1)c1cc(Cl)ccc1-n1sc2ccccc2c1=O`, for which the solubility entry in [1] was “soluble”.

With `O=c1c2ccccc2sn1C1CCCCC1`, the 50% inhibitory concentration (IC50) in series [2] is 48.8 µM; in series [3], 24.8 µM; in series [4] it was 48.3 µM. The Activity worked out at 23.4% in series [7] and 26.6% in series [10]. Besides, the outcome in series [8] and in [9] was Active.

Take `O=c1c2ccccc2sn1-c1ccccc1`: the solubility result in [1] is on record as “soluble”.

Regarding `C[C@H](c1ccccc1)n1sc2ccccc2c1=O`, the 50% inhibitory concentration (IC50) was found to be 43.1 µM in [2], 43.7 µM in [3] and 32.3 µM in series [4].

Regarding `O=c1c2ccccc2sn1-c1ccccc1[N+](=O)[O-]`, the solubility entry in series [1] is “soluble”.

For the compound `CC(C)Cn1sc2ccccc2c1=O`, the IC50 was 47.8 µM in series [2], 31.8 µM in [3] and 38.1 µM in series [4].
